Consider 14 compounds from patent US9828345B2, “Phenylpyrazole derivatives as potent ROCK1 and ROCK2 inhibitors” (BRISTOL-MYERS SQUIBB COMPANY, priority 2013, dated 2017).

What is called pIC50 is the IC50 on a negative log10 scale, so that one unit is a factor of ten.

pIC50: −log10 of the molar value. Read-outs that look alike come from different tables or passages of the source.

In one test the target is ROCK1 (Homo sapiens, UniProt Q13464). As to the kind of experiment: ROCK assay (Caliper LABCHIP peptide phosphorylation), ROCK1. The class given is biochemical. The following applies: 5 μM ATP, 1.5 μM peptide substrate.
For a further test, the target named is ROCK2 (Homo sapiens, UniProt O75116). In words: ROCK assay (Caliper LABCHIP peptide phosphorylation), ROCK2. The class given is biochemical. The following applies: 5 μM ATP, 1.5 μM peptide substrate.
In test [1] the test system is spontaneously hypertensive rat, renal hypertensive rat and deoxycortisone acetate salt hypertensive rat models. The following applies: cited from earlier work.
In test [2] the test system is congestive heart failure in Dahl salt-sensitive rats. The note with it: rat, in vivo; cited from earlier work.
In a further test the test system is neointimal formation. The following applies: rats; cited from earlier work.
The subject of test [3] is IL-1 beta-induced coronary stenosis. The following applies: long term treatment; cited from earlier work.
The subject of the next test is rat stroke model. The note with it: in vivo; cited from earlier work.

Sequence of ROCK2 (O75116 whole entry, species assumed): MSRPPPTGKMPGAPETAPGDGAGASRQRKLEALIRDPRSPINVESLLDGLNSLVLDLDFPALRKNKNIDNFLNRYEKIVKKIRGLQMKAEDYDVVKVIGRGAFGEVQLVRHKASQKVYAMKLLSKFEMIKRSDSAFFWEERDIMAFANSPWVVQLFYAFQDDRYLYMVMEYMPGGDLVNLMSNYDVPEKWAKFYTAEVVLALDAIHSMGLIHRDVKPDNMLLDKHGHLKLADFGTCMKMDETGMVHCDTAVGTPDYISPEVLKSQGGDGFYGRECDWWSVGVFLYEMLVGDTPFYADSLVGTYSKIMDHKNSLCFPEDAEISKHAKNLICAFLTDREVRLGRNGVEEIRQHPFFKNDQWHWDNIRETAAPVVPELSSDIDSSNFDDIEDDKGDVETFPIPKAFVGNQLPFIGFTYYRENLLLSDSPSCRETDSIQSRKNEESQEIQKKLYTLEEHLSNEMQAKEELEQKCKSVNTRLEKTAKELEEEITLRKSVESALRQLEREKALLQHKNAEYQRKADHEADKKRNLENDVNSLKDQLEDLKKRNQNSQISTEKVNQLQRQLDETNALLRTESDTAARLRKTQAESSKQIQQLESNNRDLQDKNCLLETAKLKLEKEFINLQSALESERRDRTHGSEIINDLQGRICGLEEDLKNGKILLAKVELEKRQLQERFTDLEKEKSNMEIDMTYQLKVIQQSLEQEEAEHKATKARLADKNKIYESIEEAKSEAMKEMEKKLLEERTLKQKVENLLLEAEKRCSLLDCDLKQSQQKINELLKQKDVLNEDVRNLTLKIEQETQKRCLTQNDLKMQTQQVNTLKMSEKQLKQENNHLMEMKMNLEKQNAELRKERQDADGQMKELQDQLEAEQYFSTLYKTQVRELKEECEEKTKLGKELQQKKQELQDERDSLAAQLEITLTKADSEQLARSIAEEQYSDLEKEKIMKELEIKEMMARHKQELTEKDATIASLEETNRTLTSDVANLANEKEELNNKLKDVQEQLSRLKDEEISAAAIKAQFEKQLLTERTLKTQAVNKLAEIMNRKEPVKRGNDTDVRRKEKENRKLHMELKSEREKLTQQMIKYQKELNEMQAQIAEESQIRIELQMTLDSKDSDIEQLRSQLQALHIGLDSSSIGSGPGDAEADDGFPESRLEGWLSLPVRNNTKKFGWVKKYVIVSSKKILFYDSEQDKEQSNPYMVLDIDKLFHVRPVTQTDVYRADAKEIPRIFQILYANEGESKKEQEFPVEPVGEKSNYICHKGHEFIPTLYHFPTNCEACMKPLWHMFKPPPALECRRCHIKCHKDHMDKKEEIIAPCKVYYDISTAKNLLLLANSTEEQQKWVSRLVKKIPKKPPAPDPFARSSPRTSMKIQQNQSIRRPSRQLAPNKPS
Sequence of ROCK1 (Q13464 whole entry, species assumed): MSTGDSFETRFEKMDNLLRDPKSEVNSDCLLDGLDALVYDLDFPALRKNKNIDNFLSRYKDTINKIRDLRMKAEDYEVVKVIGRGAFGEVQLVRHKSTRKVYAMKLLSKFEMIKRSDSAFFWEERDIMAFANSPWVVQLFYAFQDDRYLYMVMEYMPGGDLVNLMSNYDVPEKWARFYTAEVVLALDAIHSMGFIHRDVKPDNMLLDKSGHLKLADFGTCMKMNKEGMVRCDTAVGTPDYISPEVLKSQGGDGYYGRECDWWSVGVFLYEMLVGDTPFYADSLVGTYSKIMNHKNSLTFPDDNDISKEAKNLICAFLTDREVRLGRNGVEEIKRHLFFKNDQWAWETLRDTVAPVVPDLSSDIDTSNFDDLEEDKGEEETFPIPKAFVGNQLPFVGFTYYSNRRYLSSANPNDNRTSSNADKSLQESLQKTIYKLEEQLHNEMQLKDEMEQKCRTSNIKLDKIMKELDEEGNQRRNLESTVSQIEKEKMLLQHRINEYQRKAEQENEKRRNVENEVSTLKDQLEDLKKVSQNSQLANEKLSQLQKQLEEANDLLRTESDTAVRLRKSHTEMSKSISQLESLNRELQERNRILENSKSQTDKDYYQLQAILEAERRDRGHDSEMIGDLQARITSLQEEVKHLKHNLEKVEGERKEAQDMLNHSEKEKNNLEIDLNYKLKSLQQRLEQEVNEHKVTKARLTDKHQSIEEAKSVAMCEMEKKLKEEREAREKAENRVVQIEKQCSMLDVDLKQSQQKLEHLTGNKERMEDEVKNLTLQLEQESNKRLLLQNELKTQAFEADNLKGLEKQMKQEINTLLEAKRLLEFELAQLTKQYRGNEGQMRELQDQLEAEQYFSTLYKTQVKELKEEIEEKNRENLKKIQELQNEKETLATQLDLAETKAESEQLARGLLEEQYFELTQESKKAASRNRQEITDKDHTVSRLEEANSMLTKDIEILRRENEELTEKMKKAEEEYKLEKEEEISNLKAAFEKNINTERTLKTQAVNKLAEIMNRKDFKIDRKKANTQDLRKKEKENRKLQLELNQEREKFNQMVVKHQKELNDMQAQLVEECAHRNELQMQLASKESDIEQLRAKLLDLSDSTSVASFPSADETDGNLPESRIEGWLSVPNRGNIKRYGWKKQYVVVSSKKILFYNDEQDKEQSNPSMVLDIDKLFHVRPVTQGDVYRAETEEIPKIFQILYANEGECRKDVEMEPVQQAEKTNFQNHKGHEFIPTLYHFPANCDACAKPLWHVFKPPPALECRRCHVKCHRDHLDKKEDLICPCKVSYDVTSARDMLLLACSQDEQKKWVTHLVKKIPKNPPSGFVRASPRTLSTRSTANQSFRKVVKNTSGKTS

For the compound `COc1cc(NC(=O)[C@H](N)Cc2ccc3ccccc3c2)ccc1-c1cn[nH]c1` [Example 6, (R)-2-amino-N-(3-methoxy-4-(1H-pyrazol-4-yl)phenyl)-3-(naphthalen-2-yl)propanamide], the pIC50 is 8.06 against ROCK1 and 8.49 at ROCK2.
For the compound `COc1cc(NC(=O)[C@@H](N)Cc2csc3ccccc23)ccc1-c1cn[nH]c1` [Example 9, (S)-2-amino-3-(benzo[b]thiophen-3-yl)-N-(3-methoxy-4-(1H-pyrazol-4-yl)phenyl) propanamide], the pIC50 is 7.50 on ROCK1 and 7.75 at ROCK2.
Turning to `COc1cc(NC(=O)[C@H](N)Cc2cccc(C(F)(F)F)c2)ccc1-c1cn[nH]c1` [Example 11, (R)-2-amino-N-(3-methoxy-4-(1H-pyrazol-4-yl)phenyl)-3-(3-(trifluoromethyl)phenyl)propanamide], the pIC50 at ROCK1 is 7.30; against ROCK2 it was 7.85.
On the same counts, the results for `COc1cc(NC(=O)[C@H](N)Cc2ccccc2C(F)(F)F)ccc1-c1cn[nH]c1` [Example 12, (R)-2-amino-N-(3-methoxy-4-(1H-pyrazol-4-yl)phenyl)-3-(2-(trifluoromethyl)phenyl)propanamide] are 7.70 and 7.63.
As for `COc1cc(NC(=O)[C@H](N)Cc2ccc(-c3ccccc3)cc2)ccc1-c1cn[nH]c1` [Example 13, (R)-3-([1,1′-biphenyl]-4-yl)-2-amino-N-(3-methoxy-4-(1H-pyrazol-4-yl)phenyl)propanamide], the results for the pIC50 on ROCK1 and against ROCK2 were 7.17 and 7.99, respectively.
The like results for `COc1cc(NC(=O)[C@H](N)Cc2cc(F)cc(F)c2)ccc1-c1cn[nH]c1` [Example 14, (R)-2-amino-3-(3,5-difluorophenyl)-N-(3-methoxy-4-(1H-pyrazol-4-yl)phenyl) propanamide] were, in that order, 7.90 and 7.87.
On the same counts, the results for `COc1cc(NC(=O)[C@H](N)Cc2ccccc2Cl)ccc1-c1cn[nH]c1` [Example 19, (R)-2-amino-3-(2-chlorophenyl)-N-(3-methoxy-4-(1H-pyrazol-4-yl)phenyl) propanamide] are 7.86 and 7.43.
On the same counts, the results for `O=C(Cc1ccccc1Cl)Nc1ccc(-c2cn[nH]c2)cc1OCCN1CCCC1` [Example 23, N-(4-(1H-Pyrazol-4-yl)-2-(2-(pyrrolidin-1-yl)ethoxy)phenyl)-2-(2-chlorophenyl)acetamide] are 6.95 and 8.07.
On to `CN(C)CCOc1cc(-c2cn[nH]c2)c(F)cc1NC(=O)[C@H](N)CCc1ccccc1` [Example 27, (R)-2-Amino-N-(2-(2-(dimethylamino)ethoxy)-5-fluoro-4-(1H-pyrazol-4-yl)phenyl)-4-phenylbutanamide], for which the pIC50 on ROCK1 was 6.06; at ROCK2, 6.47.
On to `N[C@H](CCc1ccccc1)C(=O)Nc1ccc(-c2cn[nH]c2)cc1` [Example 28, (R)—N-(4-(1H-Pyrazol-4-yl)phenyl)-2-amino-4-phenylbutanamide], for which the values for the pIC50 at ROCK1 and on ROCK2 were 7.37 and 7.75, respectively.
The like results for `O=C(Cc1ccccc1Cl)Nc1ccc(-c2cn[nH]c2)cc1` [Example 29, N-(4-(1H-Pyrazol-4-yl)phenyl)-2-(2-chlorophenyl)acetamide] were, in that order, 7.71 and 8.39.
In the case of `COc1cc(NC(=O)[C@H](N)CCc2ccccc2)ccc1-c1c[nH]nc1C` [Example 30, (R)-2-Amino-N-(3-methoxy-4-(3-methyl-1H-pyrazol-4-yl)phenyl)-4-phenylbutanamide], the negative-log IC50 (pIC50) on ROCK1 is 6.63; against ROCK2, 6.78.
Take `C[C@@H](N)[C@H]1CC[C@H](C(=O)Nc2ccncc2)CC1` [Example Y-27632, Y-27632]: the blood pressure entry in test [1] (control rats) is listed as “only a minor effect on blood pressure”; in test [1] (three rat models of hypertension), “significantly decrease blood pressure”. The “ventricular hypertrophy, fibrosis and function” value in test [2] is “improve ventricular hypertrophy, fibrosis and function”. The neointimal formation result with neointimal formation was “inhibited neointimal formation”.
Take `O=S(=O)(c1cccc2cnccc12)N1CCCNCC1` [fasudil]: in test [3], the coronary constrictive remodeling result is reported as “promote a regression of coronary constrictive remodeling” and the coronary stenosis result is “progressively reduce coronary stenosis”. In the test with rat stroke model, the “infarct size and neurologic deficit” value was “reduce both the infarct size and neurologic deficit”.
